{"source": "patent US20240415804A1", "about": "“METHOD OF TREATING PANCREATIC CANCER” (University of South Florida, priority 2022, published 2024)", "key": {"[1]": {"system": "miR-155", "assay": "miR-155 gene expression by RT-qPCR in Panc02 cells", "assay_type": "cell-based, mouse", "settings": "API 40 μM, 24 h, vs DMSO vehicle", "protocol": "MiR-155 is known to be overexpressed in different cancers, including PC^21, 23. The inventors first assessed whether apigenin could modulate the expression of miR-155 in PC cells. Murine PC cell lines Panc02 and UN-KC-6141 as well as the human PC cell line MiaPaCa-2 were treated with API (40 μM) or DMSO vehicle for 24 h and the expression of miR-155 was examined using RT-qPCR assay. […] Since API is known to inhibit the growth of cancer cells, including PC cells^39-43, 47-50, the same PC cell lines were treated with API (40 μM) or DMSO (vehicle) for 24 h and examined cell viability using MTT assay. […] Moreover, Panc02 and UN-KC-6141 cells were then treated with API at a dose dependent concentration (10, 20, 30, 40, 50 μM) and detected apoptosis using flow cytometry (Annexin V and PI).\nmiR-155 is implicated in the development of pancreatic tumors from pancreatic intraepithelial neoplasia (PanIN) lesions, and is overexpressed in PC^23. The inventors examined whether the depletion of miR-155 modulated PC viability. Murine and human PC cell lines were transfected with miR-155 inhibitor (i.e., MMU-MIR-155-5P/HSA-MIR-155-5P) and scrambled miRNA at a concentration of 100 nM for 24 h and cell viability determined using an MTT assay. The expression of miR-155 was examined using an RT-qPCR assay as well. […]"}, "[2]": {"system": "UN-KC-6141 tumors", "assay": "Tumor growth in KC-HPC mice", "assay_type": "in vivo, mouse", "settings": "API 25 mg/kg IP three times per week", "protocol": "To build on these findings, the inventors then used a novel pancreatic cancer cell line, UN-KC-6141, that resembles human PC due to its expression of a mutated Kras and generated mice harboring these tumor cells, called KC-HPC mice. Such mice were treated with API at a dose of 25 mg/kg (IP) three times per week for 17 days. The inventors examined if API also targets miR-155 and regulates SHIP-1 in the tumors from KC-HPC mouse model. […] All female C57BL/6 mice (6-8 weeks of age) described in this study were purchased from Envigo (Indianapolis, IN, USA) and were acclimatize for one week in a pathogen-free animal facility (University of South Florida (USF) vivarium) before injections with PC cells. To generate heterotopic pancreatic cancer (HPC) models, mice were subcutaneously injected with 1.5×10^5 murine Panc02 (HPC mice) or 5×10^6 murine UN-KC-6141 cells (KC-HPC mice), in sterile 1× phosphate buffer saline (PBS), in the lower ventral abdomen, while control (CTRL) mice received sterile 1×PBS. Once tumors where palpable, API (25 mg/kg, 100 μL volume) treatments (HPC-API and KC-HPC-API), via intraperitoneal (IP) injections, were started while CTRL, HPC and KC-HPC mice received sterile PBS (vehicle) three times per week until the end of the study^12, 55. The HPC models were euthanized 21-28 days post-injection, while the KC-HPC models were euthanized 16-17 days post-injection."}, "[3]": {"system": "iNOS", "assay": "Western blot of iNOS protein in tumors of KC-HPC mice", "assay_type": "in vivo, mouse", "settings": "KC-HPC-API vs KC-HPC mice", "protocol": "The inventors then assessed the expression of CD40 (a T cell co-stimulation marker) on M1 TAM (gated as MHC-II^+ and CD206) within the tumor from KC-HPC vs. KC-HPC-API mice. […] Single-cell suspensions of BM, digested pancreatic tumors cells and UN-KC-6141 cells treated with API (40 μM) were lysed with radioimmunoprecipitation buffer (Sigma-Aldrich), quantified with a BCA Protein Assay kit (Thermo Fisher Scientific, Waltham, MA, USA), resolved by SDS-PAGE (Thermo Fisher Scientific) and transferred onto a nitrocellulose membrane as previously described. Membranes were probed with either anti-SHIP-1 (Santa Cruz Biotechnology, Dallas, TX, USA), anti-iNOS (Cell Signaling Technology) or anti-Bcl-2 (Cell Signaling Technology, Danvers, MA, USA), all at a dilution of 1:1000. All blots were re-probed with a housekeeping protein, HRP-conjugated anti-β-actin (Sigma-Aldrich), at a dilution of 1:20,000. Membranes were then probed with the respective secondary anti-mouse or rabbit IgG HRP-conjugated antibodies (1:1000) of SHIP-1 and iNOS. Detection of SHIP-1, iNOS and β-actin proteins was performed using Super Signal West Pico or Femto Chemiluminescent Substrates (Thermo Fisher Scientific) and then imaged on a Bio-Rad Chemi Doc XRS Imaging System. Normalized densitometric ratios (divided by β-actin) were determined by quantifying WB results using Image J."}}, "data": [{"compound": "O=c1cc(-c2ccc(O)cc2)oc2cc(O)cc(O)c12", "note": "[API, 40,5,7-Trihydroxyflavone, 5,7-Dihydroxy-2-(4-hydroxyphenyl)-4-benzopyrone]", "values": [{"measurement": "miR-155 gene expression", "setting": "[1]", "result": "significantly suppressed"}, {"measurement": "tumor burden (tumor volume, tumor area)", "setting": "[2]", "result": "significantly reducing"}, {"measurement": "iNOS protein expression in tumor", "setting": "[3]", "result": "significant increase"}]}]}
